How the values were obtained:
[1] = tested on: granuloma formation; assay: Granuloma formation in a mouse model of subchronic inflammation; format: in vivo; conditions: mice; 10 mg/kg body weight; previously showed, data not shown
[2] = tested on: ABCG1; assay: ABCG1 expression in HL-60 cells (real time PCR); format: cell-based, human; conditions: 10 uM, 6 h
Procedure: (§1) To investigate the effects of Compounds I and II on the expression of three genes involved in lipid metabolism [fatty acid synthase (FAS); and two ATP-dependent cholesterol and phospholipid transporters, such as ABCA1 and ABCG1], human promyelocytic leukemia cells (HL-60) that endogenously express LXR-alpha and LXR-beta were incubated in the presence of either Comp I or Comp II (10 uM), or GW3965 (1 uM) for 6 h. mRNA levels for FAS, ABCA1 and ABCG1 were determined by real time PCR and results were normalized to GAPDH expression. HL-60 (10^6 cells/well) were cultured in RPMI medium supplemented with 5% (v/v) fetal bovine serum, penicillin (100 IU/mL), streptomycin (100 ug/mL) y cyprofloxacin (0.4 ug/mL). […] To obtain RNA, at the end of the incubation the cells were collected by centrifugation at 1,000 rpm for 2 min, washed with phosphate buffered saline, and lysed in 300 ul TRIZOL (Invitrogen). RNA samples were suspended in […] of RNAse free water, and their concentration determined (NanoDrop spectrophotometer). […] To obtain cDNA, 1 ug of total RNA was denatured by incubating for 5 min at 70° C., before the addition of a mixture containing 0.5 ug oligo-dT primers and 25 ng/ml of random primers (Invitrogen), 1.0 mM dNTPs (Invitrogen), and 200 U M-MLV reverse transcriptase (Promega); after this the mixture was retrotranscribed at 37° C. for 60 min, followed by an incubation at 95° C. for 5 min to inactivate the enzyme. For the real time PCR amplification (Stratagene Thermal Cycler), cDNA samples were diluted 1/5 to 1/10 depending on the target amplification product. Calibration curves were obtained by use of eight successive 1:2 sample dilutions. Amplifications were carried out in a 25 ul final volume (5 ul cDNA sample plus 20 ul of reaction mixture) in the presence of either 3, 4 or 5 mM MgCl2 (depending on the amplified sequence), 0.25 mM dNTPs (Invitrogen), 1.25 U Taq polymerase (Invitrogen), 1 μM of the specific primers according to the target amplification sequence, and 0.025 μl SYBR Green (Roche). […]

[3] = tested on: ABCA1; assay: ABCA1 expression in HaCaT cells (real time PCR); format: cell-based, human; conditions: HaCaT; 10 uM; 24 h after UV irradiation
Procedure: […] Twenty four hours after irradiation, the cells were harvested and RNA isolated to assess the expression of LXR-alpha, LXR-beta, ABCA1, TNF-alpha, IL-6, and IL-8 genes. HaCaT cells were cultured in DMEM supplemented with 10% (v/v) fetal bovine serum, penicillin (100 U/mL), streptomycin ([…]) and glutamine (2 mM). […] The expressions of ABCA1, TNF-alpha, IL-6, IL-8, LXR-alpha, and LXR-beta were normalized according to glyceraldehyde-3-phosphate dehydrogenase (GAPDH) expression. The results of three independent assays, carried out in duplicate for each condition, are reported.

[4] = tested on: LXR-alpha; assay: LXR-alpha expression in HepG2 cells (real time PCR); format: cell-based, human; conditions: 10 uM, 6 h
Procedure: The cells were incubated for 6 h in the presence of either Compound I (10 uM), or Compound II (10 uM), or the commercial LXR agonist GW3965 (1 uM), or Vehicle [DMSO, 0.1% (v/v)]). To obtain RNA, at the end of the incubation the cells were collected by centrifugation at 1,000 rpm for 2 min, washed with phosphate buffered saline, and lysed in 300 ul TRIZOL (Invitrogen). RNA samples were suspended in ul of RNAse free water, and their concentration determined (NanoDrop spectrophotometer). The ratio of the absorbance at 260 and 280 nm was used to assess RNA purity of an RNA preparation, with a value of 1.8-2.0 indicating pure RNA. To obtain cDNA, 1 ug of total RNA was denatured by incubating for 5 min at 70° C., before the addition of a mixture containing 0.5 ug oligo-dT primers and 25 ng/ml of random primers (Invitrogen), 1.0 mM dNTPs (Invitrogen), and 200 U M-MLV reverse transcriptase (Promega); after this the mixture was retrotranscribed at 37° C. for 60 min, followed by an incubation at 95° C. for 5 min to inactivate the enzyme. For the real time PCR amplification (Stratagene Thermal Cycler), cDNA samples were diluted 1/5 to 1/10 depending on the target amplification product. Calibration curves were obtained by use of eight successive 1:2 sample dilutions. […]

[5] = tested on: fatty acid synthase (FAS); assay: FAS expression in HL-60 cells (real time PCR); format: cell-based, human; conditions: 10 uM, 6 h
Procedure: as §1

[6] = Liver weight and gross morphology (hepatic steatosis) in C57BI mice after 5 days i.p. treatment; format: in vivo; conditions: male C57BI mice; Compound I 10 mg/kg i.p. daily for 5 days
Procedure: Administration of synthetic LXR agonists such as T0901317 induces a marked increment of liver lipogenesis that leads to hepatic steatosis and plasma hypertriglyceridemia.
Male C57BI mice received daily for 5 days intraperitoneal injections containing either 10 mg Compound I/kg, or 5 mg T0901317/kg, or vehicle [90% (v/v) DMSO in apyrogenic sterile water]. On the sixth day of the assay, the animals were fasted for 4 h before decapitation. Blood plasma was obtained for the determination of total cholesterol, HDL-cholesterol and triglyceride contents. The livers were resected, and their weights and colors used as gross markers of increased liver triglyceride contents.

[7] = tested on: LXR-beta; assay: LXR-beta expression in UV-irradiated HaCaT cells (real time PCR); format: cell-based, human; conditions: 10 uM, 24 h after UV, vs. DMSO (UV, 24 h) and GW3965 (UV, 24 h)
Procedure: (§2) HaCaT cells—a human immortalized keratinocyte cell line—were exposed to 15 J/m^2 UVB (254 nm) irradiation. Twenty four hours after irradiation, the cells were harvested and RNA isolated to assess the expression of LXR-alpha, LXR-beta, ABCA1, TNF-alpha, IL-6, and IL-8 genes. HaCaT cells were cultured in DMEM supplemented with 10% (v/v) fetal bovine serum, penicillin (100 U/mL), streptomycin ([…]) and glutamine (2 mM). […] The expressions of ABCA1, TNF-alpha, IL-6, IL-8, LXR-alpha, and LXR-beta were normalized according to glyceraldehyde-3-phosphate dehydrogenase (GAPDH) expression. The results of three independent assays, carried out in duplicate for each condition, are reported.

[8] = tested on: IL-8; assay: IL-8 expression in UV-irradiated HaCaT cells (real time PCR); format: cell-based, human; conditions: 10 uM, 24 h after UV, normalized to GAPDH
Procedure: as §2

[9] = tested on: ABCA1; assay: ABCA1 expression in HL-60 cells (real time PCR); format: cell-based, human; conditions: 10 uM, 6 h
Procedure: as §1

[10] = tested on: LXR-alpha; assay: LXR-alpha expression in UV-irradiated HaCaT cells (real time PCR); format: cell-based, human; conditions: 10 uM, 24 h after UV, vs. DMSO (UV, 24 h) and GW3965 (UV, 24 h)
Procedure: as §2

[11] = tested on: ABCG1; assay: ABCG1 expression in HepG2 cells (real time PCR); format: cell-based, human; conditions: 10 uM, 6 h
Procedure: The cells were incubated for 6 h in the presence of either Compound I (10 uM), or Compound II (10 uM), or the commercial LXR agonist GW3965 (1 uM), or Vehicle [DMSO, 0.1% (v/v)]). To obtain RNA, at the end of the incubation the cells were collected by centrifugation at 1,000 rpm for 2 min, washed with phosphate buffered saline, and lysed in 300 ul TRIZOL (Invitrogen). RNA samples were suspended in ul of RNAse free water, and their concentration determined (NanoDrop spectrophotometer). The ratio of the absorbance at 260 and 280 nm was used to assess RNA purity of an RNA preparation, with a value of 1.8-2.0 indicating pure RNA. To obtain cDNA, 1 ug of total RNA was denatured by incubating for 5 min at 70° C., before the addition of a mixture containing 0.5 ug oligo-dT primers and 25 ng/ml of random primers (Invitrogen), 1.0 mM dNTPs (Invitrogen), and 200 U M-MLV reverse transcriptase (Promega); after this the mixture was retrotranscribed at 37° C. for 60 min, followed by an incubation at 95° C. for 5 min to inactivate the enzyme. For the real time PCR amplification (Stratagene Thermal Cycler), cDNA samples were diluted 1/5 to 1/10 depending on the target amplification product. Calibration curves were obtained by use of eight successive 1:2 sample dilutions. Amplifications were carried out in a 25 ul final volume (5 ul cDNA sample plus 20 ul of reaction mixture) in the presence of either 3, 4 or 5 mM MgCl2 (depending on the amplified sequence), 0.25 mM dNTPs (Invitrogen), 1.25 U Taq polymerase (Invitrogen), 1 μM of the specific primers according to the target amplification sequence, and 0.025 μl SYBR Green (Roche). Melting curves were used to assess the specificity of the amplification products. […]

CC[C@@H](C(C)C)[C@H](O)[C@@H](O)[C@@H](C)[C@H]1CC[C@H]2[C@@H]3CCC4=CC(=O)CC[C@]4(C)[C@H]3CC[C@]12C [Compound I, (22S,23S)-22,23-dihydroxystigmast-4-en-3-one]
granuloma formation [1]: reduces granuloma formation | effect on ABCG1 expression [2]: none of the test compounds significantly affected | ABCA1 expression versus DMSO-treated cells [3]: marginally induced | induction of LXR-alpha expression compared with DMSO treated HepG2 [4]: 1.5 times | FAS mRNA lower than in vehicle-treated cells [5]: ~40% | liver (hepatic) steatosis [6]: no signs | LXR-beta expression [7]: stimulated LXR-beta expression even further | IL-8 expression versus DMSO-treated cells [8]: significantly lower | effect on ABCA1 expression [9]: none of the test compounds significantly affected | LXR-alpha expression [10]: stimulated LXR-alpha expression even further | induction of ABCG1 expression [11]: 8 times

CC[C@@H](C(C)C)[C@H](O)[C@@H](O)[C@@H](C)[C@H]1CC[C@H]2[C@@H]3CCC4=CC(=O)C=C[C@]4(C)[C@H]3CC[C@]12C [Compound II, (22S,23S)-22,23-dihydroxystigmasta-1,4-dien-3-one]
effect on ABCG1 expression [2]: none of the test compounds significantly affected | ABCA1 expression versus DMSO-treated cells [3]: marginally induced | FAS mRNA lower than in vehicle-treated cells [5]: ~40% | LXR-beta expression [7]: more modest than that observed for Compound I | IL-8 expression versus DMSO-treated cells [8]: significantly lower | effect on ABCA1 expression [9]: none of the test compounds significantly affected | LXR-alpha expression [10]: stimulated LXR-alpha expression even further | induction of ABCG1 expression [11]: 3 times
